Results: patent US11020457B2, “Compositions and methods for protecting the kidney from ischemia reperfusion injury” (University of Virginia Patent Foundation, priority 2013, dated 2021)
“Also recorded” adds a separate entry of the source.

Key:
Assay type in all cases: in vivo
C57BL/6 mice [1] = assay: Renal IRI in WT mice: 4-HNE immunohistochemistry (oxidative stress); conditions: hepcidin-treated vs untreated IRI mice, FIG. 4a
Protocol: (§1) All experiments were performed in accordance with the National Institutes of Health and Institutional Animal Care and Use Guidelines. The Animal Care and Use Committee of the University of Virginia approved all procedures and protocols. C57BL/6 mice from the Jackson Laboratory and hepcidin knockout mice (HAMP−/−), a kind gift from Dr Cindy Roy (John Hopkins University) were used in this study. All experiments were performed on 8-10 weeks old male mice. Kidney ischemia-reperfusion surgery was performed as previously reported (44). The core temperature of the mice was maintained between 34° C. and 36° C. using a heating pad. After anesthetizing the mice (ketamine, 12 mg/ml; atropine, 0.48 mg/ml; xylazine, 24 mg/ml; […] mixture administered per 20 g body weight), bilateral flank incisions were made, both renal pedicles were exposed, and cross-clamped for 26 minutes (severe I/R injury) or 24 minutes (mild I/R injury). After the determined ischemia, clamps were removed, and kidneys were allowed to reperfuse for 24 hours. Ambient postoperative air temperature was maintained between 30° C. and 32° C. until mice had fully recovered. […]
Kidney sections were embedded in paraffin, 3 μm sectioned, and stained for 4 Hydroxynonenal (4-HNE) using standard protocols. […] Sections were washed 3 times in NaPO4 buffer, and then incubated in ABC ready-to-use reagent (Vector Labs) for 30 minutes. […]

C57BL/6 mice [2] = assay: Renal IRI in WT mice: flow cytometry of kidney immune cells; conditions: hepcidin vs untreated IRI, p<0.005
Protocol: as §1, with “hours.” for “hours. Ambient postoperative air temperature was maintained between 30° C. and 32° C. until mice had fully recovered.”
Single-cell suspensions from the kidney were prepared using standard methods. […] Flow cytometry data were acquired using BD FACSCalibur (BD Biosciences, San Jose, Calif.) with Cytek eight-color flow cytometry upgrade (Cytek Development, Fremont, Calif.) and analyzed with FlowJo software 9.0 (Tree Star Inc., Ashland, Oreg.). […]

[3] = tested on: hepcidin knockout mice (HAMP−/−); assay: Mild renal IRI in HAMP-/- mice: plasma creatinine, histology, NGAL; conditions: for plasma creatinine: HAMP-/- mice, single 50 μg bolus of hepcidin 24 hours before 24 min ischemia, 24 hours reperfusion, p<0.0007; for renal histology (H&E): hepcidin treated HAMP-/- IRI mice
Protocol: All experiments were performed in accordance with the National Institutes of Health and Institutional Animal Care and Use Guidelines. The Animal Care and Use Committee of the University of Virginia approved all procedures and protocols. C57BL/6 mice from the Jackson Laboratory and hepcidin knockout mice (HAMP−/−), a kind gift from Dr Cindy Roy (John Hopkins University) were used in this study. All experiments were performed on 8-10 weeks old male mice. Kidney ischemia-reperfusion surgery was performed as previously reported (44). The core temperature of the mice was maintained between 34° C. and 36° C. using a heating pad. After anesthetizing the mice (ketamine, 12 mg/ml; atropine, 0.48 mg/ml; xylazine, 24 mg/ml; […] mixture administered per 20 g body weight), bilateral flank incisions were made, both renal pedicles were exposed, and cross-clamped for 26 minutes (severe I/R injury) or 24 minutes (mild I/R injury). After the determined ischemia, clamps were removed, and kidneys were allowed to reperfuse for 24 hours. Ambient postoperative air temperature was maintained between 30° C. and 32° C. until mice had fully recovered. Sham-operated animals underwent bilateral flank incisions without clamping of renal pedicles. Twenty-four hours later, mice were euthanized, and tissues were harvested.
Renal function was determined by measurement of plasma creatinine, determined using a modified Jaffe colorimetric assay (44).
Kidneys were fixed in buffered formalin for 48 h, embedded in paraffin, sectioned (3-μm thickness), and stained with hematoxylin and eosin (H&E). The extent of acute tubular necrosis (ATN) following IRI was assessed using H&E stained kidney sections. An investigator blinded to the sample identities was used for these analyses to have an unbiased approach.
For RNA isolation, frozen tissues were re-suspended in RLT buffer (Qiagen Inc, Valencia, Calif.) and homogenized using TissueLyser system (Qiagen Inc, Valencia, Calif.). Total RNA from tissue homogenate was purified using RNAeasy mini kit (Qiagen Inc, Valencia, Calif.) following manufacturers instructions. 1 μg of RNA was used to synthesize cDNA using the iScript cDNA synthesis kit (Bio-Rad). The cDNA template was mixed with iTAQ SYBR green universal super mix (Bio-Rad) and quantitative PCR was carried out on CFX Connect system (Bio-Rad). Predesigned primers for Caspase-3 and Bcl-2 were purchased from Bio-rad. Glyceraldehyde-3-phosphate dehydrogenase (GAPDH) was amplified in parallel and used as the reference gene in quantification. Data is expressed as the relative gene expression and was calculated using the 2 (−ρρC(T)) method.
Given the significance of hepcidin-mediated ferroportin regulation in preventing renal IRI, we hypothesized that genetic hepcidin deficiency would aggravate IRI. […] There was no significant rise in plasma creatinine after mild IRI in the WT mice and sham operated HAMP^−/− mice (FIG. 6a). […] Renal histology further corroborated the deleterious effect of hepcidin deficiency in AKI. There were higher numbers of casts and necrotic tubules in the S1, S2 and S3 segments in HAMP^−/− kidneys after IRI (FIG. 6b, and Sup FIG. 3b). To investigate if hepcidin re-constitution could rescue HAMP^−/− mice from IRI, we injected these mice with a single 50 μg bolus of hepcidin, 24 hours before renal ischemia and sacrificed them 24 hours after reperfusion. Strikingly, a single injection of hepcidin afforded an almost complete protection against IRI in the HAMP^−/− mice.

Mouse hepcidin 25 (DTNFPICIFCCKCCNNSQCGICCKT; listed as Mus musculus)
kidney 4-HNE immunoreactivity (oxidative stress) (C57BL/6 mice [1]): reduced the reactivity to 4 HNE; also recorded: markedly reduced | kidney 4-HNE immunoreactivity (oxidative stress) (C57BL/6 mice [1]; listed as hepcidin): far less 4-HNE immunoreactivity | frequency of kidney CD45+ cells (C57BL/6 mice [2]; FIG. 4b-c): reduced renal inflammatory cell infiltration by almost half | kidney neutrophils (C57BL/6 mice [2]; FIG. 4c): significantly reduced IRI-induced renal neutrophil inflammation | kidney NGAL expression ([3]; HAMP-/- IRI Vs HAMP-/- Hepcidin-IRI, p<0.05): significantly lowered NGAL expression | plasma creatinine [3]: not significantly different than shams and WT mice | plasma creatinine ([3]; listed as hepcidin): significantly lower compared to untreated mice with levels comparable to that in sham-operated mice | renal histology (H&E) [3]: Hepcidin mediated protection of the kidney after IRI | renal histology (H&E) ([3]; listed as hepcidin): remarkable preservation of renal histology
